Several values for one entry are separate records, joined by “and”; a condition that tells them apart may be missing. Equal values may be shown once. Inconclusive results and toxic doses are left out.

This passage reports T/C results from PubChem BioAssay AID248 (DTP/NCI, 2004).

In the experiment the test system is L1210 leukemia ip in BDF1 mice, survival T/C. Nature of the experiment: NCI In Vivo Anticancer Drug Screen. Data for tumor model L1210 Leukemia (intraperitoneal) in B6D2F1 (BDF1) mice. As to conditions: endpoint: mean survival time, higher = longer survival. Put shortly:
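Survival endpoint. Drug-treated group vs vehicle group, expressed as T divided by C. Tumor passaged by transplantation.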

Setting [1] is: dose: 200.0 mg/kg/injection, schedule: Q01DX001 (ip), vehicle: saline.
Setting [2] is: dose: 200.0 mg/kg/injection, schedule: Q04DX003 (ip), vehicle: Klucel (hydroxypropylcellulose) (HPC).
The mark [3] stands for this setting: dose: 200.0 mg/kg/injection, schedule: Q04DX003 (ip), vehicle: saline with Tween-80.
Setting [4] is: dose: 100.0 mg/kg/injection, schedule: Q01DX009 (ip), vehicle: saline with Tween-80.
[5] abbreviates: dose: 100.0 mg/kg/injection, schedule: Q04DX003 (ip), vehicle: saline with Tween-80.
The mark [6] stands for this setting: dose: 200.0 mg/kg/injection, schedule: Q01DX009 (ip), vehicle: saline with Tween-80.
Setting [7] is: dose: 400.0 mg/kg/injection, schedule: Q01DX009 (ip), vehicle: saline with Tween-80.
The mark [8] stands for this setting: dose: 400.0 mg/kg/injection, schedule: Q04DX003 (ip), vehicle: saline with Tween-80.
The mark [9] stands for this setting: dose: 50.0 mg/kg/injection, schedule: Q01DX001 (ip), vehicle: saline.
[10] abbreviates: dose: 100.0 mg/kg/injection, schedule: Q01DX001 (ip), vehicle: saline.
The mark [11] stands for this setting: dose: 400.0 mg/kg/injection, schedule: Q01DX001 (ip), vehicle: saline.

For the compound `CCSc1nc(Cl)cc(Sc2nc(N)nc3nc[nH]c23)n1`, the T/C was 104 % of control (dose: 10.0 mg/kg/injection, schedule: Q01DX009 (ip), vehicle: saline); 100 % of control (dose: 12.0 mg/kg/injection, schedule: Q01DX001 (ip), vehicle: saline); 116 % of control (dose: 15.0 mg/kg/injection, schedule: Q04DX003 (ip), vehicle: saline); 119 % of control (dose: 19.0 mg/kg/injection, schedule: Q01DX001 (ip), vehicle: saline); 115 % of control (dose: 20.0 mg/kg/injection, schedule: Q01DX009 (ip), vehicle: saline); 122 % of control (dose: 30.0 mg/kg/injection, schedule: Q04DX003 (ip), vehicle: saline). The T/C by setting is: (dose: 45.0 mg/kg/injection, schedule: Q01DX001 (ip), vehicle: saline) 123 % of control; (dose: 50.0 mg/kg/injection, schedule: Q04DX003 (ip), vehicle: saline) 118 % of control; (dose: 66.0 mg/kg/injection, schedule: Q01DX001 (ip), vehicle: saline) 114 % of control and 123 % of control; (dose: 100.0 mg/kg/injection, schedule: Q01DX009 (ip), vehicle: saline) 156 % of control; (dose: 100.0 mg/kg/injection, schedule: Q01DX Z (ip), vehicle: methylcellulose (MC)) 115 % of control; (dose: 120.0 mg/kg/injection, schedule: Q04DX003 (ip), vehicle: saline) 151 % of control. Besides, the T/C (dose: 132.0 mg/kg/injection, schedule: Q04DX003 (ip), vehicle: saline with Tween-80) is 175 % of control; the T/C under setting [1] was 100 % of control; the T/C (dose: 200.0 mg/kg/injection, schedule: Q01DX Z (ip), vehicle: methylcellulose (MC)) was 122 % of control; the T/C under setting [2] was 158 % of control; the T/C under setting [3] is 200 % of control; the T/C (dose: 240.0 mg/kg/injection, schedule: Q01DX001 (ip), vehicle: saline) was 193 % of control. For the same compound, the T/C reads like this: (dose: 240.0 mg/kg/injection, schedule: Q04DX003 (ip), vehicle: saline) 204 % of control; (dose: 300.0 mg/kg/injection, schedule: Q04DX003 (ip), vehicle: Klucel (hydroxypropylcellulose) (HPC)) 168 % of control; (dose: 300.0 mg/kg/injection, schedule: Q04DX003 (ip), vehicle: saline with Tween-80) 180 % of control; (dose: 360.0 mg/kg/injection, schedule: Q01DX001 (ip), vehicle: saline) 205 % of control; (dose: 360.0 mg/kg/injection, schedule: Q04DX003 (ip), vehicle: saline) 188 % of control; (dose: 400.0 mg/kg/injection, schedule: Q01DX009 (ip), vehicle: saline) 108 % of control. Moreover, the T/C is 102 % of control (dose: 400.0 mg/kg/injection, schedule: Q01DX Z (ip), vehicle: carboxymethylcellulose (CMC)); 121 % of control (dose: 600.0 mg/kg/injection, schedule: Q01DX009 (ip), vehicle: saline); 90 % of control (dose: 800.0 mg/kg/injection, schedule: Q01DX Z (ip), vehicle: carboxymethylcellulose (CMC)); 124 % of control (dose: 810.0 mg/kg/injection, schedule: Q01DX001 (ip), vehicle: saline); 119 % of control (dose: 810.0 mg/kg/injection, schedule: Q04DX003 (ip), vehicle: saline).

Consider `NNc1cc(S(=O)(=O)O)cc2cc(S(=O)(=O)O)cc(O)c12`, for which the T/C by setting is: (dose: 75.0 mg/kg/injection, schedule: Q01DX009 (ip), vehicle: Klucel (hydroxypropylcellulose) (HPC)) 107 % of control; (dose: 150.0 mg/kg/injection, schedule: Q01DX009 (ip), vehicle: Klucel (hydroxypropylcellulose) (HPC)) 107 % of control; (dose: 300.0 mg/kg/injection, schedule: Q01DX009 (ip), vehicle: Klucel (hydroxypropylcellulose) (HPC)) 104 % of control.

In the case of `O=C(Cl)c1ccc(N2C(=O)c3ccccc3C2=O)cc1[N+](=O)[O-]`, the T/C reads like this: under setting [4], 98 % of control; under setting [5], 102 % of control; under setting [6], 97 % of control; under setting [3], 98 % of control; under setting [7], 106 % of control; under setting [8], 100 % of control.

Turning to `ClC1=C(Cl)C2(Cl)C(c3ccccc3)=CC1(Cl)C2(Cl)Cl` (centres undefined), the T/C runs as follows: (dose: 100.0 mg/kg/injection, schedule: Q01DX009 (ip), vehicle: gum acacia) 93 % of control; (dose: 100.0 mg/kg/injection, schedule: Q04DX003 (ip), vehicle: gum acacia) 114 % of control; (dose: 200.0 mg/kg/injection, schedule: Q01DX009 (ip), vehicle: gum acacia) 90 % of control; (dose: 200.0 mg/kg/injection, schedule: Q04DX003 (ip), vehicle: gum acacia) 99 % of control; (dose: 400.0 mg/kg/injection, schedule: Q01DX009 (ip), vehicle: gum acacia) 100 % of control; (dose: 400.0 mg/kg/injection, schedule: Q04DX003 (ip), vehicle: gum acacia) 92 % of control.

On to `O=C(Nc1cccc(C2=NCCN2)c1)c1cccc2c(C(=O)Nc3cccc(C4=NCCN4)c3)cccc12`, for which, under “dose: 15.0 mg/kg/injection, schedule: Q01DX Z (ip), vehicle: carboxymethylcellulose (CMC)”, the T/C was 86 % of control.

For `CC(=O)N1C(=O)C(Cl)C(Cl)C(=O)N1C(C)=O` (centres undefined), the T/C was 89 % of control (dose: 100.0 mg/kg/injection, schedule: Q04DX003 (ip), vehicle: Klucel (hydroxypropylcellulose) (HPC)) and 89 % of control under setting [2].

As for `CC(=O)CC(=O)C(F)(F)F.CC(=O)CC(=O)C(F)(F)F.CC(=O)CC(=O)C(F)(F)F.[Rh]`, the T/C under setting [4] was 97 % of control; the T/C under setting [5] was 97 % of control; the T/C under setting [6] is 100 % of control; the T/C under setting [3] is 90 % of control; the T/C under setting [7] is 96 % of control; the T/C under setting [8] is 92 % of control.

For the compound `COC1OC2COC(c3ccccc3)OC2C(OC(C)=O)C1OC(C)=O` (centres undefined), the T/C was 95 % of control (dose: 100.0 mg/kg/injection, schedule: Q04DX002 (ip), vehicle: Klucel (hydroxypropylcellulose) (HPC)); 117 % of control (dose: 200.0 mg/kg/injection, schedule: Q04DX002 (ip), vehicle: Klucel (hydroxypropylcellulose) (HPC)); 120 % of control (dose: 400.0 mg/kg/injection, schedule: Q04DX002 (ip), vehicle: Klucel (hydroxypropylcellulose) (HPC)).

For `CCOC(=O)C1CN(Cc2ccccc2)C(=O)C1=O` (centres undefined), the T/C is 102 % of control under setting [9]; 101 % of control (dose: 75.0 mg/kg/injection, schedule: Q01DX009 (ip), vehicle: saline); 102 % of control under setting [10]; 99 % of control (dose: 150.0 mg/kg/injection, schedule: Q01DX009 (ip), vehicle: saline); 102 % of control under setting [1]; 99 % of control (dose: 300.0 mg/kg/injection, schedule: Q01DX009 (ip), vehicle: saline). The T/C under setting [11] is 114 % of control.

As to `CCCCN(CCCC)CCNc1ccc(Cl)c2oc3cc(C)ccc3c(=O)c12`, the T/C (dose: 12.5 mg/kg/injection, schedule: Q01DX009 (ip), vehicle: Klucel (hydroxypropylcellulose) (HPC)) was 95 % of control; the T/C (dose: 12.5 mg/kg/injection, schedule: Q04DX003 (ip), vehicle: saline with Tween-80) is 94 % of control; the T/C (dose: 25.0 mg/kg/injection, schedule: Q01DX009 (ip), vehicle: Klucel (hydroxypropylcellulose) (HPC)) was 92 % of control; the T/C (dose: 25.0 mg/kg/injection, schedule: Q04DX003 (ip), vehicle: saline with Tween-80) is 95 % of control; the T/C under setting [9] was 93 % of control; the T/C (dose: 50.0 mg/kg/injection, schedule: Q01DX009 (ip), vehicle: Klucel (hydroxypropylcellulose) (HPC)) was 93 % of control. Further, the T/C reads like this: (dose: 50.0 mg/kg/injection, schedule: Q04DX003 (ip), vehicle: saline with Tween-80) 87 % of control; under setting [10], 98 % of control; (dose: 100.0 mg/kg/injection, schedule: Q01DX009 (ip), vehicle: Klucel (hydroxypropylcellulose) (HPC)) 95 % of control; under setting [1], 93 % of control; under setting [11], 98 % of control.

With `C#CC(NCCC(C)CC(C)(C)C)C(C)C` (centres undefined), the T/C under setting [5] is 103 % of control and the T/C under setting [3] was 90 % of control.

Consider `O=C(NCCCCC(NC(=O)OCc1ccccc1)C(=O)NCCCCCCN(CCCCCCNC(=O)C(CCCCNC(=O)OCc1ccccc1)NC(=O)OCc1ccccc1)C(=O)C(CCCCNC(=O)OCc1ccccc1)NC(=O)OCc1ccccc1)OCc1ccccc1` (centres undefined), for which the T/C under setting [10] is 100 % of control, the T/C under setting [1] is 94 % of control and the T/C under setting [11] was 94 % of control.
